What was measured:
[1] = aqueous solution; 0.01 to 1 mM; cited from earlier work
[2] = 37° C. in water, 20 MHz; cited from earlier work
[3] = cited from earlier work
tumor = settings: in vivo; cited from earlier work
[4] = Axial base binding of benzimidazole, 1H NMR spectral titration; settings: CDCl3; Scatchard plot; estimated error ≤15%; read-out: K1 (benzimidazole) (converted)
From the text: For a rigorously five coordinate starting cadmium complex, such as that represented schematically by structure 3A, where neither the counter anion nor adventitious ligands serves to occupy an apical coordination site, base binding can be considered to occur in accord with equations (1) and (2) shown below. Under conditions where K1 […]K2, these processes can be considered to occur sequentially, giving first a monoligated, presumably pentagonal pyramidal six coordinate species (such as 4bA), followed by a coordinatively saturated bisligated pentagonal bipyramidal product akin to 5aA. Where, however, K2 >>K1this stepwise conceptual approach is invalid. Under these conditions, it becomes easier to analyze the base binding in terms of direct formation of the bisligated material as shown in equation (3).
L+B LB K1 =[LB]/[L][B] (1)
LB+B LB2 K2 =[LB2 ]/[LB][B] (2)
L+2B LB2 K1 K2 =[LB2 ]/[L][B]^2 (3)
The ^1 H NMR titration of 3A .cndot.NO3 with BzIm or pyr-D5 was done. Rigorously purified complex 3A .cndot.NO3 was dried at 80° C. under reduced pressure (1 mmHg) for 1 day. Starting samples for titration were then prepared by dissolving this five coordinate complex (3.32 mg, 0.005 mmol) in 0.7 to 0.75 ml of CDCl3 and transferring quantitatively to an NMR tube. To such samples were then added increasing aliquots of either BzIm or pyr-D5 (as solutions of known concentration in CDCl3) and recording the chemical shift of the "meso" protons at 27^Q C. Control experiments were also carried out by adding known quantities of CF3 CO2 H, D2 O, and NH4 NO3 to similar stock solutions of 3.cndot.NO3.
Determination of Binding Constants. […] The chemical shift data obtained for the "meso" signals as a function of added BzIm were thus analyzed as such at both very low and very high conversion: Standard Scatchard (single reciprocal) plots^38 were constructed by plotting (δ-δo)/[BzIm] vs (δ-δo) according to equation 4 (which corresponds to eq. 5.13 of ref. 38), obtaining K as the absolute value of the slope and the term (δ.infin. -δo)K as the intercept.
(δ-δo)/[BzIm]=-K(δ-δo)+(δ.infi
Here δ is the observed chemical shift, δo is the initial chemical shift of the pure five or six coordinate starting complex (3A .cndot.NO3 or 4bA --NO3), δ.infin. the chemical shift calculated for the final mono- or bisligated complexes 4bA .cndot.NO3 or 5aA .cndot.NO3, K the equilibrium constant in question, and [BzIm] the concentration of free, uncomplexed benzimidazole. […] This was done in a straightforward manner according to the expressions given in equations 5 and 6, where [lig]o represents the concentration of the starting five coordinate ligand 3A .cndot.NO3.
(δ-δo)/δ.infin. -δo) at low
[BzIm].congruent.[BzIm]o -[lig]o at high [BzIm]o (6)
Using these corrected values for [BzIm], straight line Scatchard plots were obtained with R[…]0.99 and 0.98 respectively for the low and high [BzIm]o regimes giving values of K1 and K2 of 1.80×10^4 M^-1 and 12.9 M^-1 respectively.

[5] = Stability to demetallation (sulfide, thiosulfate); assay type: physicochemical
From the text: The above K1 and K2 (or K1 K2) values are predicated on the assumption that the cadmium complexes under discussion are stable with regards to demetallation and that the equilibria of equations 1 and 2 (or 3) pertain under the conditions of base binding. The first of these concerns is readily apparent: If demetallation occurs, then obviously one is not studying base binding! […] The second concern is particularly important within the context of quantitative work: If, for instance, the starting complex 3.cndot.NO3 is not rigorously five coordinate, then K1 (and perhaps K2 as well) would represent an axial ligand displacement reaction rather than a pure addition process as implied above. Control experiments indicate that the assumption of initial five coordination is reasonable: Independent titrations of 3A .cndot.NO3 with NH4 NO3 and H2 O indicate that only modest and monotonic changes in the chemical shift of the "meso" signals take place over the course of adding ≥50 equivalents of these potentially adventitious ligands.^40 This means that either "complete" binding occurs at 1:1 stoichiometry (essentially ruled out in the case of H2 O on the basis of analytical data), or that these species are poorly coordinating in CHCl3 so that five coordination pertains about cadmium; the latter interpretation appearing more likely.
(§1) Attempts to demetallate complex 3A .cndot.NO3 were made. In an effort to obtain the free sp^2 bridged ligand 2A, the above complex in chloroform was stirred for several hours in the presence of sodium sulfide and independently with sodium thiosulfate. […] In the case of sodium sulfide, this critical conclusion was further supported by FAB MS: Other than the starting cationic complex 3A, no evidence was obtained for any moderate to high molecular weight volatile products in the mass spectrum. […] The rate of this process, however, is strongly pH dependent, the half-life being, for instance, on the order of several hours in the presence of ca. 0.1N HCl.

[6] = system: peripheral mononucleated vascular cells (PMC); assay: Mitogenic assay ([3H]-Thy uptake after PHA stimulation) of peripheral mononucleated vascular cells in whole human plasma; assay type: cell-based; settings: 0.15 μM, 20 joules/cm^2 of 770 nm light, aerobic
Procedure: Cell kill was determined by [3H]-Thy uptake after phytohemagglutin (PHA) stimulation.
Cell kill was determined by [^3 H]-Thy uptake after PHA stimulation.
The inactivation of PMC's in the absence and presence of light after exposure to concentrations of complex 3A in whole human plasma ranging from 0.015 to 38 μM is shown in FIG. 29 and FIG. 30. Inactivation was judged by mitogenic assay. Toxicity onset with 3A (see FIG. 4B) and 1c (see FIG. 19) in the absence of light was between 0.15 and 1.5 μM (FIG. 29). […] Moderate increase in either photosensitizer concentration or light dosage is expected to result in essentially complete cellular inactivation.

[7] = system: Herpes Simplex Virus Type 1 (HSV-1); assay: HSV-1 photoinactivation, viral plaque assay in Vero cells; assay type: cell-based; settings: for % Survival Viral Infectivity: light at max absorption, 10 J/cm^2
From the text: The photosensitized inactivation of Herpes Simple Virus, Type 1 (HSV-1) was investigated in culture medium using various macrocycles of the present invention.
The macrocycle photosensitizing studies employed enveloped HSV-1 as the model for screening based on its ease of propagation and assessment of infectivity in cell culture. The screening procedure for photoinactivation of HSV-1 was similar to the methods previously described.^3 Essentially, selected macrocycles at different concentrations were added to a cell-free suspension of 10^6 PFU/ml of HSV-1. The viral suspensions were irradiated at the optimal absorption wavelength of the selected dye at different light-energy densities. Controls consisted of (1) nonirradiated virus, (2) virus irradiated in the absence of macrocycle, and (3) virus treated with selected concentrations of macrocycle and maintained in the dark. All samples were then assessed for viral infectivity by determining the number of PFU/ml in Vero cells.
Viral suspensions were serially diluted and subsequently absorbed onto Vero cell monolayers for 11/2 hours at 37^~ C. An overlay medium was added and the cells incubated at 37^~ C. for 3-4 days. The overlay medium was then removed, the monolayers fixed with methanol and tinctured with Giemsa, and individual plaques counted under a dissecting microscope. Uninfected cell cultures also were exposed to the macrocycle complexes to rule out direct cytotoxic effects.

[8] = Hydrolysis in aqueous acid; assay type: physicochemical; settings: aqueous acid
From the text: as §1

[9] = Optical and photophysical properties of metallotexaphyrins (laser flash photolysis, fluorescence, singlet oxygen luminescence); assay type: physicochemical; settings: preliminary, photoexcitation at 350 nm
From the text: Finally, several complexes containing paramagnetic metal ions (e.g. Mn^II, Sm^III, and Eu^III, structures 5c -7c) were investigated.
Comparison of the initial intensity with that obtained using tetrakis (4-hydroxyphenyl)porphyrin (THPP) as photosensitizer^3b under identical conditions allowed calculation of the quantum yields for production of singlet oxygen (^.phi. 1.cndot.2).

[Gd+3] [Gd(III)]
toxicity for direct use in MRI imaging [1]: too toxic to be used directly

CNC[C@H](O)[C@@H](O)[C@H](O)[C@H](O)CO.CNC[C@H](O)[C@@H](O)[C@H](O)[C@H](O)CO.O=C([O-])CN(CCN(CC(=O)[O-])CC(=O)O)CCN(CC(=O)[O-])CC(=O)O.[Gd+3] [[Gd(DTpA)(H2 O)]^2-, bis(N-methylglucamine) salt of Gd(III) diethylenetriaminepentaacetate]
relaxivity [2]: 3.7 mM-^1 s-^1 | excretion ([3]; after administration): excreted intact through the kidneys within several days of administration | localization ([3]; in vivo): localizes selectively in extracellular regions

O=S(=O)([O-])c1ccc(-c2c3nc(c(-c4ccc(S(=O)(=O)[O-])cc4)c4ccc([n-]4)c(-c4ccc(S(=O)(=O)[O-])cc4)c4ccc([n-]4)c(-c4ccc(S(=O)(=O)[O-])cc4)c4nc2C=C4)C=C3)cc1.[Mn+3] [[Mn(III)TPPS]^3 -]
tumor localizing properties (tumor): good tumor localizing properties

CCC1=C(C)c2cnc3ccccc3ncc3nc(cc4[n-]c(cc1n2)c(CC)c4CC)C(CC)=C3C.[Cd+2] [complex 3A]
Kd [4]: 55.6 µM | demetallation by sulfide ([5]; aqueous Na2 S / excess sulfide anion): no demetallation takes place | stability relative to cadmium porphyrins ([5]; neutral conditions / base binding controls): more stable than cadmium porphyrins | inhibition of cellular division [6]: significant inhibition of the cellular division of PMC's | % Survival Viral Infectivity ([7]; 0.25 μM): 100% | % Survival Viral Infectivity ([7]; 2.5 μM): 20% | % Survival Viral Infectivity ([7]; 10 μM): 8% | % Survival Viral Infectivity ([7]; 20 μM): 12% | viral inactivation ([7]; 20 μM, viral plaque assay): ≥ 90% | hydrolysis in aqueous acid [8]: leads to hydrolysis of the macrocyle | triplet quantum yield [9]: roughly 80% | triplet quenching in the presence of air [9]: quenched completely by formation of singlet oxygen | triplet lifetime ([9]; absence of oxygen): 54 μs
